Measured values reported in BindingDB's records for PubMed 39149111 (Cairo University).

Biological target: Prostaglandin G/H synthase 2 (Ovis aries) (UniProt P79208)
Experiment: Inhibition of ovine COX-2 using arachidonic acid as substrate preincubated for 5 mins followed by substrate addition

Prostaglandin G/H synthase 2 (Ovis aries), sequence (P79208 whole entry, looked up): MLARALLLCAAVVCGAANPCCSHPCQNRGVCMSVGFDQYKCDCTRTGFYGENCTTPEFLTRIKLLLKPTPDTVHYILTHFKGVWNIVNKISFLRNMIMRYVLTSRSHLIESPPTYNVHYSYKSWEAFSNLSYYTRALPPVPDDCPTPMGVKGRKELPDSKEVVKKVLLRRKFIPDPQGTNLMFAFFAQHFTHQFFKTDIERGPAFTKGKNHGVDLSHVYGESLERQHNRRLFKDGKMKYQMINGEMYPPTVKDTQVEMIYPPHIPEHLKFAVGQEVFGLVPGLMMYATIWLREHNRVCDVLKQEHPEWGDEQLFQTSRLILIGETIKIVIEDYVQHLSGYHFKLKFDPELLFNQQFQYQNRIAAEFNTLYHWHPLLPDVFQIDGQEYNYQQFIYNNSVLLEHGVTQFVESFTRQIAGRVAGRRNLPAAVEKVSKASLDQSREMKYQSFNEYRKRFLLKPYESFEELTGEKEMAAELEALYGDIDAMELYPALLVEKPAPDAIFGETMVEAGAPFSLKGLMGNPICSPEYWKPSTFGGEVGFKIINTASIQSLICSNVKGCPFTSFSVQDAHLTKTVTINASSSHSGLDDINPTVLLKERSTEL

O=C1NNC(N=CCc2ccc([N+](=O)[O-])cc2)C1=NNc1ccc(-c2nc3ccccc3o2)cc1 (stereo unspecified)
IC50: 560 nM
